From the NIST ThermoML archive (doi:10.1021/je300827f)

Assay: xn = mol fraction of the nth substance listed
Details: 101 kPa, Liquid; for viscosity: Capillary tube (Ostwald / Ubbelohde) method; for mass density: Vibrating tube method

OCCOCCO [diethylene glycol] + CCC(C)O
Details	mass density, 298.15 K [kg/m3]	mass density, 303.15 K [kg/m3]	mass density, 308.15 K [kg/m3]	mass density, 313.15 K [kg/m3]	viscosity, 298.15 K [mPa·s]	viscosity, 303.15 K [mPa·s]	viscosity, 308.15 K [mPa·s]	viscosity, 313.15 K [mPa·s]
x1 = 0.0808	829.4	824.8	819.9	815.3	3.69	–	–	–
x1 = 0.0833	–	–	–	–	–	3.1	2.65	2.22
x1 = 0.1598	855.3	850.5	845.5	840.7	4.42	–	–	–
x1 = 0.161	–	–	–	–	–	3.69	3.17	2.74
x1 = 0.2398	881.3	876.3	871.2	866.3	5.33	–	–	–
x1 = 0.2402	–	–	–	–	–	4.41	3.77	3.31
x1 = 0.3494	916.4	911.3	906.2	901.2	6.94	–	–	–
x1 = 0.3498	–	–	–	–	–	5.69	4.77	4.25
x1 = 0.4399	944.9	939.8	934.7	929.8	8.61	–	–	–
x1 = 0.441	–	–	–	–	–	7.03	5.79	5.16
x1 = 0.5591	981.9	977.8	971.9	967.1	11.34	–	–	–
x1 = 0.5609	–	–	–	–	–	9.25	7.44	6.62
x1 = 0.6498	–	–	–	–	–	11.31	8.98	7.93
x1 = 0.6501	1009.7	1004.9	1000.1	995.4	13.86	–	–	–
x1 = 0.7398	–	–	–	–	–	13.64	10.74	9.42
x1 = 0.7399	1036.7	1032.3	1027.6	1023.1	16.72	–	–	–
x1 = 0.8499	1069.2	1065.1	1060.9	1056.8	20.75	–	–	–
x1 = 0.8501	–	–	–	–	–	16.88	13.24	11.5
x1 = 0.9399	1095.3	1091.7	1087.9	1084.2	24.46	–	–	–
x1 = 0.9405	–	–	–	–	–	19.8	15.56	13.42
x1 = 1	1112.4	1109.1	1105.6	1102.3	27.15	21.87	17.26	14.81

OCCOCCO [diethylene glycol] + CCCC(C)O
Details	mass density, 298.15 K [kg/m3]	mass density, 303.15 K [kg/m3]	mass density, 308.15 K [kg/m3]	mass density, 313.15 K [kg/m3]	viscosity, 298.15 K [mPa·s]	viscosity, 303.15 K [mPa·s]	viscosity, 308.15 K [mPa·s]	viscosity, 313.15 K [mPa·s]
x1 = 0.0811	827.8	823.5	818.9	814.6	3.85	3.17	2.84	2.47
x1 = 0.1598	849.9	845.5	840.8	836.5	4.44	3.55	3.29	2.93
x1 = 0.2399	872.9	868.4	863.5	859.2	5.12	4.05	3.79	3.44
x1 = 0.3501	905.1	900.6	895.7	891.3	6.37	5.03	4.58	4.26
x1 = 0.4398	931.9	927.5	922.6	918.2	7.79	6.17	5.42	5.08
x1 = 0.5599	968.7	964.2	959.5	955.2	10.37	8.3	6.9	6.46
x1 = 0.6501	997.1	992.8	988.1	983.9	12.9	10.35	8.33	7.74
x1 = 0.7399	1025.8	1021.7	1017.4	1013.1	15.92	12.81	10.08	9.22
x1 = 0.8499	1061.8	1058.1	1053.9	1050	20.26	16.33	12.72	11.36
x1 = 0.9399	1091.9	1088.3	1084.7	1081.1	24.28	19.56	15.31	13.35
x1 = 1	1112.4	1109.1	1105.6	1102.3	27.14	21.87	17.26	14.81

OCCOCCO [diethylene glycol] + CCCCC(C)O
x1 = 1
Details	mass density [kg/m3]	viscosity [mPa·s]
298.15 K	1112.4	27.15
303.15 K	1109.1	21.87
308.15 K	1105.6	17.26
313.15 K	1102.3	14.81

OCCOCCO [diethylene glycol] + CCCCCC(C)O
x1 = 1
Details	mass density [kg/m3]	viscosity [mPa·s]
298.15 K	1112.4	27.14
303.15 K	1109.1	21.87
308.15 K	1105.6	17.26
313.15 K	1102.3	14.81

CCCC(C)O (stereo not given) [pentan-2-ol] + OCCOCCO
x2 = 0
Details	mass density [kg/m3]	viscosity [mPa·s]
298.15 K	805.4	3.2
303.15 K	801.2	2.8
308.15 K	796.6	2.33
313.15 K	792.5	1.99
